One assay addresses T1, cPLA2 (Homo sapiens, UniProt P47712).
T1 sequence (P47712 1-749): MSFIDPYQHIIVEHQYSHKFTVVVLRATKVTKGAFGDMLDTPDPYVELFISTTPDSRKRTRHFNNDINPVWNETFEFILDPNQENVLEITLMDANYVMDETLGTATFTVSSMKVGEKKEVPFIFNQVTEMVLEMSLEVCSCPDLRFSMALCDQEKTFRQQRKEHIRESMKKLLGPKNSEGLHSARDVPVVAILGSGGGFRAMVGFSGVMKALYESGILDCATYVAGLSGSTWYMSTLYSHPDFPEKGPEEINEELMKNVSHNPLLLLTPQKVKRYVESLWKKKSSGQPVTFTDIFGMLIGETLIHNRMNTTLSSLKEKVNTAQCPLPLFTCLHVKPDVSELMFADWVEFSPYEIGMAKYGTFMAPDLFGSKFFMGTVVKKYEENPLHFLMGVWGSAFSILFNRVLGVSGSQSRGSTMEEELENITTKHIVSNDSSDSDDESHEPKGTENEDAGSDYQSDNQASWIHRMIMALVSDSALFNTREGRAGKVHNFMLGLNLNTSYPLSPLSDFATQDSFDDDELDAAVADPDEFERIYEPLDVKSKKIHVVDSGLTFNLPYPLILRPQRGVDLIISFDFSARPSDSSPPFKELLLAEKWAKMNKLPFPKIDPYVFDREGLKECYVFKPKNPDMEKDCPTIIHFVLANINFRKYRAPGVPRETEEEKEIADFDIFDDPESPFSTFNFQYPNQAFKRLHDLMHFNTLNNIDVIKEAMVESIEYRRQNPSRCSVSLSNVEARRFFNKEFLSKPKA
The experiment in a line: Coumarin Assay (cPLA2 inhibition). The conditions noted are these: for inhibition at 70 µM: CONCENTRATION 70 micromolar; for inhibition at 13 µM: CONCENTRATION 13 micromolar. The class given is biochemical. Put shortly:
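Percent inhibition at the stated concentration, from the rate of 460 nm emission rise (360 nm excitation) per minute. Reaction started by adding 4 μg enzyme to compound and 60 μM 7-hydroxycoumarinyl 6-heptenoate in Hepes buffer pH 7.5 with 1 mM EDTA.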

In assay [1] the test system is Rat Carrageenan-Induced Footpad Edema. Put plainly: Rat Carrageenan-Induced Footpad Edema Test. The class given is in vivo, male Sprague Dawley rats. Conditions: footpad volume 3 hours after carrageenan; for inhibition in vivo at 2 mg/kg / inhibition in vivo at 10 mg/kg / inhibition in vivo at 5 mg/kg: Rattus norvegicus, 3 h, read-out: PERCENT INHIBITION; for inhibition in vivo at 2 mg/kg / inhibition in vivo at 10 mg/kg: po; for inhibition in vivo at 2 mg/kg / inhibition in vivo at 10 mg/kg / PERCENT INHIBITION: PO; for inhibition in vivo at 5 mg/kg: iv, IV.

Several values for one entry are separate records, joined by “and”; a condition that tells them apart may be missing. Equal entries are not always repeated.

What is called inhibition is the change of the read-out against control, counted positive when it falls. As for `O=C(O)c1cccc(NC(=O)c2cn(C(c3ccccc3)c3ccccc3)c3ccc(NC(=O)C4CCCC4)cc23)c1` [Example 100, 3-[({1-benzhydryl-5-[(cyclopentylcarbonyl)amino]-1H-indol-3-yl}carbonyl)amino]benzoic acid], the inhibition at 24 µM at cPLA2 (CONCENTRATION 24 micromolar, read-out: PERCENT INHIBITION @) was determined as 50%. Also, at cPLA2 (CONCENTRATION 30 micromolar, read-out: PERCENT INHIBITION @), the inhibition at 30 µM was found to be 50%. Also, the inhibition at 80 µM on cPLA2 (CONCENTRATION 80 micromolar, read-out: PERCENT INHIBITION @) came to 50%. The inhibition in vivo at 2 mg/kg in assay [1] (2 mg/Kg) was found to be 6.14%. Further, in assay [1] (10 mg/Kg), the inhibition in vivo at 10 mg/kg was 20.7%.

Take `COc1cc(C(=O)O)ccc1Cc1cn(C(c2ccccc2)c2ccccc2)c2ccc(NS(=O)(=O)c3ccc(Cl)c([N+](=O)[O-])c3)cc12` [Example 91, 4-[(1-benzhydryl-5-{[(4-chloro-3-nitrophenyl)sulfonyl]amino}-1H-indol-3-yl)methyl]-3-methoxybenzoic acid]: on cPLA2 (CONCENTRATION 3.8 micromolar, read-out: PERCENT INHIBITION @), the inhibition at 3.8 µM came to 50%. Moreover, the inhibition at 4.25 µM at cPLA2 (CONCENTRATION 4.25 micromolar, read-out: PERCENT INHIBITION @) came to 50%. The inhibition in vivo at 2 mg/kg in assay [1] (2 mg/Kg) amounted to 13.5%. Besides, the inhibition in vivo at 10 mg/kg in assay [1] (10 mg/Kg) was 14.7%.

Regarding `Cc1ccccc1S(=O)(=O)NC(=O)c1ccc(Cc2cn(C(c3ccccc3)c3ccccc3)c3ccc(NC(=O)OC4CCCC4)cc23)cc1` [Example 53, cyclopentyl N-{1-benzhydryl-3-[4-({[(2-methylphenyl)sulfonyl]1amino}carbonyl)benzyl]-1H-indol-5-yl}carbamate], the “PERCENT INHIBITION @” value at cPLA2 (CONCENTRATION 11 micromolar) and at cPLA2 (CONCENTRATION 15.5 micromolar) was 50% in each case. For the same molecule, the results for the “PERCENT INHIBITION” value in assay [1] (2 mg/Kg) and in assay [1] (10 mg/Kg) were −1.81% and 11.35%, respectively.

Take `O=C(O)CN1CCN(Cc2cn(C(c3ccccc3)c3ccccc3)c3ccc(NC(=O)C4CCCC4)cc23)CC1` [Example 66, 2-[4-({1-benzhydryl-5-[(cyclopentylcarbonyl)amino]-1H-indol-3-yl}methyl)piperazino]acetic acid]: the inhibition at 70 µM on cPLA2 (read-out: PERCENT INHIBITION @) came out at 50%. Besides, the “PERCENT INHIBITION @” value at cPLA2 (CONCENTRATION 200 micromolar) was determined as 19%. In addition, the inhibition at 200 µM on cPLA2 (CONCENTRATION 200 micromolar, read-out: PERCENT INHIBITION @) worked out at 15%. The inhibition in vivo at 5 mg/kg in assay [1] is 25.3%.

As for `O=C(O)/C=C/c1cn(C(c2ccccc2)c2ccccc2)c2ccc(NC(=O)C3CCCC3)cc12` [Example 86A, (E)-3-{1-benzhydryl-5-[(cyclopentylcarbonyl)amino]-1H-indol-3-yl}-2-propenoic acid], the inhibition at 60 µM at cPLA2 (CONCENTRATION 60 micromolar, read-out: PERCENT INHIBITION @) was determined as 50%. For the same molecule, the inhibition at 70 µM on cPLA2 (read-out: PERCENT INHIBITION @) is 50%. Besides, the inhibition at 82 µM on cPLA2 (CONCENTRATION 82 micromolar, read-out: PERCENT INHIBITION @) worked out at 50%. The inhibition at 118 µM on cPLA2 (CONCENTRATION 118 micromolar, read-out: PERCENT INHIBITION @) amounted to 50%. For the same molecule, the inhibition in vivo at 5 mg/kg in assay [1] came to 7.4%.

As to `COc1cc(C(=O)NS(=O)(=O)C(F)(F)F)ccc1Cc1cn(C(c2ccccc2)c2ccccc2)c2ccc(NC(=O)OC3CCCC3)cc12` [Example 26, Cyclopentyl N-{1-benzhydryl-3-[2-methoxy-4-({[(trifluoromethyl)sulfonyl]amino}carbonyl)benzyl]-1H-indol-5-yl}carbamate], the inhibition at 2.4 µM on cPLA2 (CONCENTRATION 2.4 micromolar, read-out: PERCENT INHIBITION @) is 50%. Also, the inhibition at 2.5 µM on cPLA2 (CONCENTRATION 2.5 micromolar, read-out: PERCENT INHIBITION @) is 50%. In addition, in assay [1], the inhibition in vivo at 5 mg/kg is 25.3%.

Take `COc1cc(C(=O)O)ccc1Cc1cn(C(c2ccccc2)c2ccccc2)c2cc3c(cc12)OCO3` [Example 16, 4-[(5-benzhydryl-5H-[1,3]dioxolo[4,5-f]indol-7-yl)methyl]-3-methoxybenzoic acid]: on cPLA2 (CONCENTRATION 0.125 micromolar), the “PERCENT INHIBITION @” value is 61% and 71%. In addition, on cPLA2 (CONCENTRATION 0.14 micromolar, read-out: PERCENT INHIBITION @), the inhibition at 0.14 µM is 50%. In addition, the inhibition at 0.17 µM at cPLA2 (CONCENTRATION 0.17 micromolar, read-out: PERCENT INHIBITION @) is 50%. Moreover, the inhibition at 0.25 µM at cPLA2 (CONCENTRATION 0.25 micromolar, read-out: PERCENT INHIBITION @) turned out to be 69%. For the same molecule, the inhibition at 6.25 µM at cPLA2 (CONCENTRATION 6.25 micromolar, read-out: PERCENT INHIBITION @) is 98%. In addition, in assay [1] (2 mg/Kg), the inhibition in vivo at 2 mg/kg worked out at 3.8%. Besides, the inhibition in vivo at 10 mg/kg in assay [1] (10 mg/Kg) worked out at 15%.

For the molecule `Cc1ccccc1S(=O)(=O)NC(=O)c1cn(C(c2ccccc2)c2ccccc2)c2ccc(NC(=O)C3CCCC3)cc12` [Example 102, N-[1-benzhydryl-3-({[(2-methylphenyl)sulfonyl]amino}carbonyl)-1H-indol-5-yl]cyclopentanecarboxamide], the inhibition at 20 µM on cPLA2 (CONCENTRATION 20 micromolar, read-out: PERCENT INHIBITION @) was 31%. On cPLA2 (CONCENTRATION 48 micromolar, read-out: PERCENT INHIBITION @), the inhibition at 48 µM stood at 50%. Further, in assay [1] (2 mg/Kg), the inhibition in vivo at 2 mg/kg worked out at 2.56%. The inhibition in vivo at 10 mg/kg in assay [1] (10 mg/Kg) is 8.48%.

Regarding `Cc1ccccc1S(=O)(=O)NC(=O)c1ccc(Cc2cn(C(c3ccccc3)c3ccccc3)c3ccc(Br)cc23)cc1` [Example 57, N-{4-[(1-benzhydryl-5-bromo-1H-indol-3-yl)methyl]benzoyl}-2-methylbenzenesulfonamide], the inhibition at 1.05 µM on cPLA2 (CONCENTRATION 1.05 micromolar, read-out: PERCENT INHIBITION @) was found to be 50%. On cPLA2 (CONCENTRATION 1.38 micromolar, read-out: PERCENT INHIBITION @), the inhibition at 1.38 µM is 50%. Also, the inhibition at 1.4 µM at cPLA2 (CONCENTRATION 1.4 micromolar, read-out: PERCENT INHIBITION @) was 50%. For the same molecule, the inhibition in vivo at 2 mg/kg in assay [1] (2 mg/Kg) is 10.4%. For the same molecule, the inhibition in vivo at 10 mg/kg in assay [1] (10 mg/Kg) turned out to be 20.7%.

With `COc1cc(C(=O)O)ccc1Cc1cn(C(c2ccccc2)c2ccccc2)c2ccc(NS(=O)(=O)c3c(C)nn(C)c3Cl)cc12` [Example 95, 4-[(1-benzhydryl-5-{[(5-chloro-1,3-dimethyl-1H-pyrazol-4-yl)sulfonyl]amino}-1H-indol-3-yl)methyl]-3-methoxybenzoic acid], the inhibition at 11.5 µM on cPLA2 (CONCENTRATION 11.5 micromolar, read-out: PERCENT INHIBITION @) is 50%. The inhibition at 13 µM at cPLA2 (read-out: PERCENT INHIBITION @) was 50%. For the same molecule, in assay [1] (2 mg/Kg), the inhibition in vivo at 2 mg/kg was 14.9%. Moreover, in assay [1] (10 mg/Kg), the inhibition in vivo at 10 mg/kg turned out to be 23.2%.

For `CCCCNC(=O)Nc1ccc2c(c1)c(Cc1ccc(C(=O)O)cc1OC)cn2C(c1ccccc1)c1ccccc1` [Example 9, 4[(1-benzhydryl-5-{[(butylamino)carbonyl]amino}-1H-indol-3-yl)methyl]3-methoxybenzoic acid], the inhibition at 13 µM on cPLA2 (read-out: PERCENT INHIBITION @) worked out at 50%. On cPLA2 (CONCENTRATION 19 micromolar, read-out: PERCENT INHIBITION @), the inhibition at 19 µM was 50%. The inhibition in vivo at 5 mg/kg in assay [1] was found to be 4.46%.

As for `COc1cc(C(=O)O)ccc1Cc1cn(C(c2ccccc2)c2ccccc2)c2ccc(C#N)cc12` [Example 17, 4-[(1-benzhydryl-5-cyano-1H-indol-3-yl)methyl]-3-methoxybenzoic acid], the inhibition at 0.7 µM at cPLA2 (CONCENTRATION 0.7 micromolar, read-out: PERCENT INHIBITION @) worked out at 50%. In addition, at cPLA2 (CONCENTRATION 0.8 micromolar, read-out: PERCENT INHIBITION @), the inhibition at 0.8 µM worked out at 50%. At cPLA2 (CONCENTRATION 0.85 micromolar, read-out: PERCENT INHIBITION @), the inhibition at 0.85 µM amounted to 50%. For the same molecule, the inhibition at 0.98 µM on cPLA2 (CONCENTRATION 0.98 micromolar, read-out: PERCENT INHIBITION @) was determined as 50%. In assay [1] (2 mg/Kg), the inhibition in vivo at 2 mg/kg worked out at 19.3%. Moreover, the inhibition in vivo at 10 mg/kg in assay [1] (10 mg/Kg) came out at 34.5%.
